Measured values published in US12441757B2, “Platform for screening NAD+ binding proteins in a cellular context” (OREGON HEALTH & SCIENCE UNIVERSITY, priority 2020, dated 2025).

Tests used:
PARP-1 = biological target: T1, PARP-1 (Homo sapiens, UniProt P09874); test: In vitro PARP-1 auto-PARylation activity assay; assay type: biochemical; conditions: dose response; activated DNA, 50 μM NAD^+, anti-ADPr immunoblot
T1 construct: Full length His6-PARP-1 and His6-SUMO-PARP-10 proteins we expressed and purified; His6 (N); made in house
Procedure: (§1) FIG. 5. A clickable NAD^+ PAL probe (2-ad-BAD) inhibits PARP-1 and PARP-10 activity in concentration response. (FIG. 5A) 50 nM of recombinant His6-PARP-1 was incubated with 10 μg/mL activated DNA in 100 mM NaCl, 50 mM HEPES [pH 7.4], 4 mM MgCl2, 0.2 mM TCEP for 10 min, then treated with indicated competitor (BAD or the PARP-1 inhibitor NMS-P118) for additional 10 min. 50 μM NAD^+ was then added to initiate auto-PARylation of PARP-1. After 10 min, the reaction was quenched by addition of 4× Laemmli sample buffer and boiling at 95° C. for 5 min. Protein samples were separated by SDS-PAGE, transferred onto nitrocellulose and probed with indicated antibodies. (FIG. 5B) Experiments were performed essentially as in (5A) with the exception that damaged DNA was omitted and the PARP-10 inhibitor ITK6 was used instead of NMS-P118. (FIG. 5C) Densitometry analyses of (5A) and (5B) comparing inhibitory effect of BAD on PARP-1 and PARP-10 auto-ADP-ribosylation. Data are mean±SEM of 3 independent experiments. […]
(§2) Samples were run on 10% or 12% acrylamide gels for ˜1 h at 180 V in Mini-PROTEAN Tetra cell (Biorad). […] Band intensities we quantified with ImageJ.

PARP-10 = biological target: T2, PARP-10 (Homo sapiens, UniProt Q53GL7); test: In vitro PARP-10 auto-MARylation activity assay; assay type: biochemical
T2 construct: Full length His6-PARP-1 and His6-SUMO-PARP-10 proteins we expressed and purified; His6 (N); SUMO (N); made in house
T2 sequence (Q53GL7 1-1025): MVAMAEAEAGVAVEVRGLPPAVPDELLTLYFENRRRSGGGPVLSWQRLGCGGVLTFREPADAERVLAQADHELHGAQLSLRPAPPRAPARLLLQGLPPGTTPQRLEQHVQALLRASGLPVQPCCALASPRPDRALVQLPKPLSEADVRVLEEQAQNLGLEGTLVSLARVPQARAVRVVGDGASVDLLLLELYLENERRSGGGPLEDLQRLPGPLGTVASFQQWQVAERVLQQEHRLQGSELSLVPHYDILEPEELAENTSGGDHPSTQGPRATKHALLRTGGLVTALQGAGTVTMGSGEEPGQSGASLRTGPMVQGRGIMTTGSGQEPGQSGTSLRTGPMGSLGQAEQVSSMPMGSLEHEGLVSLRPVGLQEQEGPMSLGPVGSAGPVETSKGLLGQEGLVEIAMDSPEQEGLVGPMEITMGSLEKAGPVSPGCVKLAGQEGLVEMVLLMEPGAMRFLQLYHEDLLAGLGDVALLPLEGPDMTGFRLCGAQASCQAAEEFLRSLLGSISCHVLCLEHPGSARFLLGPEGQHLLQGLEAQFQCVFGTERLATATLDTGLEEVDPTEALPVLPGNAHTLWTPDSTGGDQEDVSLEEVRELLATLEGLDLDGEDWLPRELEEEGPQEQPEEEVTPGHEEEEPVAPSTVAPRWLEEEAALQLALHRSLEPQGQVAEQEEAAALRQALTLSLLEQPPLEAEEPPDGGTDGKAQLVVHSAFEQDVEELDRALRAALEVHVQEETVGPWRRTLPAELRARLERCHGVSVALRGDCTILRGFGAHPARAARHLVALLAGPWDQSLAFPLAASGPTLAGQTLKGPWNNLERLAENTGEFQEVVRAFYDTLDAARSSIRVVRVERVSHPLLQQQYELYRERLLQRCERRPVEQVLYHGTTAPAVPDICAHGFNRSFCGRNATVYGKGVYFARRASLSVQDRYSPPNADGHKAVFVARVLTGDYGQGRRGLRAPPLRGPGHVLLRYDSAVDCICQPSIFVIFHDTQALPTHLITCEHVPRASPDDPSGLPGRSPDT
Procedure: as §1, §2

[1] = test system: inosine monophosphate dehydrogenase; conditions: cited from earlier work

T1 sequence (P09874 whole entry): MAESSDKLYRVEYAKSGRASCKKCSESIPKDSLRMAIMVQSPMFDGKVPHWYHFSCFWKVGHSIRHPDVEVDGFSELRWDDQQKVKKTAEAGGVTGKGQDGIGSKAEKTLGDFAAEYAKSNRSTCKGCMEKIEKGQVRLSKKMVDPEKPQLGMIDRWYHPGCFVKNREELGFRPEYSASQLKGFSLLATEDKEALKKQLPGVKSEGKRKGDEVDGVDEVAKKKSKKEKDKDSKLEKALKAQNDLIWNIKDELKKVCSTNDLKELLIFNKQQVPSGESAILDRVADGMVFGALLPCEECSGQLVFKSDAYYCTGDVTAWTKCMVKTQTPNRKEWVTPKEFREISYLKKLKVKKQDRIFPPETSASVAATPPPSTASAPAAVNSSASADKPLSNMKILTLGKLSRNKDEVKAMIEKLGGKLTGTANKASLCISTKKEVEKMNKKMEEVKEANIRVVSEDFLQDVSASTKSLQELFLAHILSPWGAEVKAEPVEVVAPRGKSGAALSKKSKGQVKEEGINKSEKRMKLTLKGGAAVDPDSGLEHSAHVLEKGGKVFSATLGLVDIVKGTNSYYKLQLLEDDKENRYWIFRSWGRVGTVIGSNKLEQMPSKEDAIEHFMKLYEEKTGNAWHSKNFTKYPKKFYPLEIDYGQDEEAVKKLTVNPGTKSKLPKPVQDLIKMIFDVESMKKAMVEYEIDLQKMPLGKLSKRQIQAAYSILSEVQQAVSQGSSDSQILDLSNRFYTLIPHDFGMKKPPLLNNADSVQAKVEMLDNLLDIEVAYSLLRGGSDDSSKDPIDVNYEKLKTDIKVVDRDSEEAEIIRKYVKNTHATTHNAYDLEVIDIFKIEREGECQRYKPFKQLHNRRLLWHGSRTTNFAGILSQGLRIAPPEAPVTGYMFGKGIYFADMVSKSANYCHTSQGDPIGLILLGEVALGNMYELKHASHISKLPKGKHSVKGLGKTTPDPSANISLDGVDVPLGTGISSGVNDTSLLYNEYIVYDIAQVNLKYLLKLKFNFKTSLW

NC(=O)c1cccc([C@@H]2O[C@H](COP(=O)(O)OP(=O)(O)OC[C@H]3O[C@@H](n4cnc5c(N)ncnc54)[C@H](O)[C@@H]3O)[C@@H](O)[C@H]2O)c1 [BAD, benzamide adenine dinucleotide]
inhibition of PARP-1 auto-PARylation (PARP-1): inhibited
relative potency against PARP-10 compared to PARP-1 (PARP-10; auto-ADP-ribosylation assays, densitometry): the opposite was true
inhibition of PARP-10 auto-MARylation (PARP-10; dose response, 50 μM NAD^+, anti-ADPr immunoblot): inhibited
binding to and inhibition of NAD^+/NADH binding enzymes (e.g., inosine monophosphate dehydrogenase) [1]: binds to and inhibits
